{"source": "patent US8716182B2", "about": "“Liquid aqueous crop protection formulations” (BASF SE, priority 2008, dated 2014)", "origin": "cited, not measured here"}
{"settings": "miscible means fully miscible with water"}
{"molecule": "C[S+](C)[O-]", "note": "[DMSO, dimethyl sulfoxide]", "solubility in water at 20° C.": "(miscible)"}
{"molecule": "CC(=O)OCC(COC(C)=O)OC(C)=O", "note": "[triacetin]", "solubility in water at 20° C.": "(64 g/l)"}
{"molecule": "OCC1CCCO1", "note": "(stereo not shown) [tetrahydrofurfuryl alcohol]", "solubility in water at 20° C.": "(miscible)"}
{"molecule": "COCC(C)OC(C)=O", "note": "(stereo not shown) [Arcosolv ® PMA, 1-methoxy-2-propanol acetate]", "solubility in water at 20° C.": "acetate)(400 g/l)"}
{"molecule": "OCCOc1ccccc1", "note": "[Agrisol PX401, 2-phenoxyethanol]", "solubility in water at 20° C.": "(24 g/l)"}
{"molecule": "CCCOC(=O)C(C)O", "note": "(stereo not shown) [Purasolv ® NPL, n-propyl lactate]", "solubility in water at 20° C.": "(miscible)"}
{"molecule": "O=C1CCCO1", "note": "[γ-butryrolacton, γ-butyrolactone]", "solubility in water at 20° C.": "(miscible)"}
